Experimental data taken from patent publication US20240368203A1, “DEGRADATION OF (EGFR) BY CONJUGATION OF EGFR INHIBITORS WITH E3 LIGASE LIGAND AND METHODS OF USE” (BeiGene, Ltd., priority 2022, published 2024).

How the values were obtained:
[1] = test system: EGFR-Del19/T790M/C797S; experiment: EGFR degradation HTRF assay in H1975-clone #28 cells; format: cell-based; details: H1975-clone #28 (Del19/T790M/C797S) cells, 16 h treatment; for DC50: IC50 (DC50), read-out: DC50(nM) H1975 # 28 DTC; for Dmax (%) H1975 # 28 DTC: maximum percentage of inhibition (degradation)
Protocol: (§1) H1975-clone #28(Del19/T790M/C797S) and H1975-clone #25(L858R/T790M/C797S). EGFR-Del19/T790M/C797S and EGFR-L858R/T790M/C797S were stably expressed in H1975 cell lines by lentivirus-mediated over-expression, respectively. The EGFR over-expressed cells then underwent knockout, in which the EGFR targeting sgRNA was designed to only target the endogenous EGFR copies and preserve the exogenous EGFR copies. Followed by knockout, the edited H1975 cells were seeded in 96 well plates at the concentration of […], cultured for about 2 weeks to allow single clones formation. The formed clones were screened by DNA sequencing and whole exon sequencing analysis for the desired edition.
(§2) H1975-clone #28, and H1975-clone #25 were finally confirmed as homozygous Del19/T790M/C797S EGFR, and L858R/T790M/C797S EGFR clones, respectively.
(§3) H1975-#25 and H1975-#28 cells are treated with compounds diluted in 0.2% DMSO cell culture medium on day 2, incubate for 16 h, 37° C., 5% CO2. the final concentration of compounds in all assay is start with 10 uM, 5-fold dilution, total 8 doses were included.
(§4) After 16 h treatment, add HTRF lysis buffer to each well; seal the plate and incubate 1 hour at room temperature on a plate shaker; Once the cells are lysed, 16 μL of cell lysate are transferred to a PE 384-well HTRF detection plate; 4 μL of pre-mixed HTRF antibodies are added to each well; Cover the plate with a plate sealer, spin 1000 rpm for 1 min, Incubate overnight at room temperature; Read on BMG PheraStar with HTRF protocol (337 nm-665 nm-620 nm).
(§5) The inhibition (degradation) percentage of the compound was calculated by the following equation:
(§6) Inhibition percentage of Compound=100−100×(Signal−low control)/(High control−low control),
(§7) The IC50 (DC50) value of a compound can be obtained by fitting the following equation
(§8) Wherein, X and Y are known values, and IC50, Hillslope, Top and Bottom are the parameters obtained by fitting with software. Y is the inhibition percentage (calculated from the equation), X is the concentration of the compound; IC50 is the concentration of the compound when the 50% inhibition is reached. The smaller the IC50 value is, the stronger the inhibitory ability of the compound is. Vice versa, the higher the IC50 value is, the weaker the ability the inhibitory ability of the compound is; Hillslope represents the slope of the fitted curve, generally around 1 *; Bottom represents the minimum value of the curve obtained by data fitting, which is generally 0%±20%; Top represents the maximum value of the curve obtained by data fitting, which is generally 100%±20%. The experimental data were fitted by calculating and analyzing with Dotmatics data analysis software.

[2] = molecular target: T1, EGFR-L858R/T790M/C797S (Homo sapiens, UniProt P00533, C797S/L858R/T790M); experiment: EGFR degradation HTRF assay in H1975-clone #25 cells; format: cell-based; details: 16 h treatment; for DC50: H1975-clone #25 (L858R/T790M/C797S) cells, IC50 (DC50), read-out: DC50(nM) H1975 # 25-LTC; for Dmax: NCI-H1975, H1975-clone #25 (L858R/T790M/C797S) cells, maximum percentage of inhibition (degradation), read-out: Dmax (%) H1975 # 25-LTC
T1 construct: expressed in transfected cells; host or cells: H1975-clone #25 (lentiviral over-expression, endogenous EGFR knocked out)
T1 sequence (P00533 25-1210 T790M/C797S/L858R): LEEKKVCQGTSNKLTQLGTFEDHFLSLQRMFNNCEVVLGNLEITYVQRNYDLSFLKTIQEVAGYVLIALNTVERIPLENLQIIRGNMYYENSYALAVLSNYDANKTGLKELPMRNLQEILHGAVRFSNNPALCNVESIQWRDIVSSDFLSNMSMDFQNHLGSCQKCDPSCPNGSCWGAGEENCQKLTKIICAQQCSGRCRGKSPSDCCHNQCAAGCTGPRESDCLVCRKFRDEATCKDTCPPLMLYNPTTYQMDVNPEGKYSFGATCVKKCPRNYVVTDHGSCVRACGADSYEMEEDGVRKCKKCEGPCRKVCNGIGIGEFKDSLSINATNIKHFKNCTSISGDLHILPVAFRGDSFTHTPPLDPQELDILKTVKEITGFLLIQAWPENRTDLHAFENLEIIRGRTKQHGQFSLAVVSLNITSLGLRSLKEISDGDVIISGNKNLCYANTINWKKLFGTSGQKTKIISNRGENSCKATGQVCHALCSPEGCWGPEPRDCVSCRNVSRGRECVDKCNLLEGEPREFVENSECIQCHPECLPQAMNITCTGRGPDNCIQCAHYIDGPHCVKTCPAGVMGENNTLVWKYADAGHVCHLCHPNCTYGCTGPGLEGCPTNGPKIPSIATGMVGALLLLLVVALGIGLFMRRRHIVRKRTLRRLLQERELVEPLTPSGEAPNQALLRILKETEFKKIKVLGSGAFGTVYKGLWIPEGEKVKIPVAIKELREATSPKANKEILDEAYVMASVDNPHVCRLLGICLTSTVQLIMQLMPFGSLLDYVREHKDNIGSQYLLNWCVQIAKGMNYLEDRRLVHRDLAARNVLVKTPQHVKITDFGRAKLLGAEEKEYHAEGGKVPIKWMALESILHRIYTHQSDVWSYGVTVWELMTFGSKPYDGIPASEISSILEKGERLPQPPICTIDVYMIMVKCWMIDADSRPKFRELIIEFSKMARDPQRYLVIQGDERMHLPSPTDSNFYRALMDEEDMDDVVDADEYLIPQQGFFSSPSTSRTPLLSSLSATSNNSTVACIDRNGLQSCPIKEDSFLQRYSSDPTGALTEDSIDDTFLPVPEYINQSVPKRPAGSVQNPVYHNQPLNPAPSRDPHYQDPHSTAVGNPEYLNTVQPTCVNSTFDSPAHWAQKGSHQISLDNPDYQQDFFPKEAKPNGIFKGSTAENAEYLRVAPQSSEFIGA
Protocol: as §1, §2, §3, §4, §5, §6, §7, §8

| SMILES | DC50 [1] [nM] | Dmax (%) H1975 # 28 DTC [1] [%] | DC50 [2] [nM] | Dmax [2] [%] |
| --- | --- | --- | --- | --- |
| CCc1ncc2c(P(C)(C)=O)c(Nc3nc(Nc4cc(CC)c(N5CCC(N6CC7(CN(c8cccc9c8n(C)c(=O)n9C8CCC(=O)NC8=O)C7)C6)CC5)cc4OC)ncc3Br)ccc2n1 (centres unmarked) [Example 25, 3-(4-(6-(1-(4-((5-bromo-4-((5-(dimethylphosphoryl)-2-ethylquinazolin-6-yl)amino)pyrimidin-2-yl)amino)-2-ethyl-5-methoxyphenyl)piperidin-4-yl)-2,6-diazaspiro[3.3]heptan-2-yl)-3-methyl-2-oxo-2,3-dihydro-1H-benzo[d]imidazol-1-yl)piperidine-2,6-dione] | 0.8 | 74 | 0.5 | 82 |
| CCc1cc(Nc2ncc(Br)c(Nc3ccc4nc(C)c(F)cc4c3P(C)(C)=O)n2)c(OC)cc1N1CCC(N2CC3(CN(c4cccc5c4n(C)c(=O)n5C4CCC(=O)NC4=O)C3)C2)CC1 (centres unmarked) [Example 26, 3-(4-(6-(1-(4-((5-bromo-4-((5-(dimethylphosphoryl)-3-fluoro-2-methylquinolin-6-yl)amino)pyrimidin-2-yl)amino)-2-ethyl-5-methoxyphenyl)piperidin-4-yl)-2,6-diazaspiro[3.3]heptan-2-yl)-3-methyl-2-oxo-2,3-dihydro-1H-benzo[d]imidazol-1-yl)piperidine-2,6-dione] | 1.4 | 75 | 0.7 | 80 |
| CCc1cc(Nc2ncc(Br)c(Nc3ccc4nc(C)c(F)cc4c3P(C)(C)=O)n2)c(OC)cc1N1CCC2(CCN(CCCc3cccc4c3n(C)c(=O)n4C3CCC(=O)NC3=O)CC2)CC1 (centres unmarked) [Example 28, 3-(4-(3-(9-(4-((5-bromo-4-((5-(dimethylphosphoryl)-3-fluoro-2-methylquinolin-6-yl)amino)pyrimidin-2-yl)amino)-2-ethyl-5-methoxyphenyl)-3,9-diazaspiro[5.5]undecan-3-yl)propyl)-3-methyl-2-oxo-2,3-dihydro-1H-benzo[d]imidazol-1-yl)piperidine-2,6-dione] | 1 | 80 | 2.2 | 87 |
| CCc1ncc2c(P(C)(C)=O)c(Nc3nc(Nc4cc(CC)c(N5CCC(N6CC7(CCN(c8cccc9c8n(C)c(=O)n9C8CCC(=O)NC8=O)CC7)C6)CC5)cc4OC)ncc3Br)ccc2n1 (centres unmarked) [Example 31, 3-(4-(2-(1-(4-((5-bromo-4-((5-(dimethylphosphoryl)-2-ethylquinazolin-6-yl)amino)pyrimidin-2-yl)amino)-2-ethyl-5-methoxyphenyl)piperidin-4-yl)-2,7-diazaspiro[3.5]nonan-7-yl)-3-methyl-2-oxo-2,3-dihydro-1H-benzol[d]imidazol-1-yl)piperidine-2,6-dione] | 0.8 | 80 | 0.6 | 86 |
| CCOc1cc(N2CCC(N3CC4(CCN(c5cccc6c5n(C)c(=O)n6C5CCC(=O)NC5=O)CC4)C3)CC2)c(CC)cc1Nc1ncc(Cl)c(Nc2ccc3nc(C)c(F)cc3c2P(C)(C)=O)n1 (centres unmarked) [Example 32, 3-(4-(2-(1-(4-((5-chloro-4-((5-(dimethylphosphoryl)-3-fluoro-2-methylquinolin-6-yl)amino)pyrimidin-2-yl)amino)-5-ethoxy-2-ethylphenyl)piperidin-4-yl)-2,7-diazaspiro[3.5]nonan-7-yl)-3-methyl-2-oxo-2,3-dihydro-1H-benzol[d]imidazol-1-yl)piperidine-2,6-dione] | 1.4 | 77 | 1.3 | 81 |
| CCc1cc(Nc2ncc(Br)c(Nc3ccc4nc(C)c(F)cc4c3P(C)(C)=O)n2)c(OC)cc1N1CCC2(CCN(CC3CN(c4cccc5c4CN(C4CCC(=O)NC4=O)C5=O)C3)CC2)CC1 (centres unmarked) [Example 33, 3-(4-(3-((9-(4-((5-bromo-4-((5-(dimethylphosphoryl)-3-fluoro-2-methylquinolin-6-yl)amino)pyrimidin-2-yl)amino)-2-ethyl-5-methoxyphenyl)-3,9-diazaspiro[5.5]undecan-3-yl)methyl)azetidin-1-yl)-1-oxoisoindolin-2-yl)piperidine-2,6-dione] | 2.1 | 82 | 1.5 | 91 |
| CCc1cc(Nc2ncc(Br)c(Nc3ccc4nc(C)c(F)cc4c3P(C)(C)=O)n2)c(OC)cc1N1CCC2(CCN(CCN(C)c3cccc4c3CN(C3CCC(=O)NC3=O)C4=O)CC2)CC1 (centres unmarked) [Example 34, 3-(4-((2-(9-(4-((5-bromo-4-((5-(dimethylphosphoryl)-3-fluoro-2-methylquinolin-6-yl)amino)pyrimidin-2-yl)amino)-2-ethyl-5-methoxyphenyl)-3,9-diazaspiro[5.5]undecan-3-yl)ethyl)(methyl)amino)-1-oxoisoindolin-2-yl)piperidine-2,6-dione] | 2.5 | 80 | 2.8 | 89 |
| CCc1ncc2c(P(C)(C)=O)c(Nc3nc(Nc4cc(CC)c(N5CCC(N6CCN(CC7CCN(c8ccc9c(c8)CN(C8CCC(=O)NC8=O)C9=O)CC7)CC6)CC5)cc4OC)ncc3Br)ccc2n1 (centres unmarked) [Example 35, 3-(5-(4-((4-(1-(4-((5-bromo-4-((5-(dimethylphosphoryl)-2-ethylquinazolin-6-yl)amino)pyrimidin-2-yl)amino)-2-ethyl-5-methoxyphenyl)piperidin-4-yl)piperazin-1-yl)methyl)piperidin-1-yl)-1-oxoisoindolin-2-yl)piperidine-2,6-dione] | 1.2 | 79 | 1.3 | 83 |
| COc1cc(N2CCC3(CC2)CCN(C2CCN(c4cc(F)c([C@H]5CCC(=O)NC5=O)c(F)c4)CC2)CC3)c(C)cc1Nc1ncc(Br)c(Nc2ccc3nccnc3c2P(C)(C)=O)n1 [Example 36, (R)-3-(4-(4-(9-(4-((5-bromo-4-((5-(dimethylphosphoryl)quinoxalin-6-yl)amino)pyrimidin-2-yl)amino)-5-methoxy-2-methylphenyl)-3,9-diazaspiro [5.5]undecan-3-yl)piperidin-1-yl)-2,6-difluorophenyl)piperidine-2,6-dione] | 3.1 | 93 | 4.5 | 94 |
| COc1cc(N2CCC3(CC2)CCN(C2CCN(c4cc(F)c([C@H]5CCC(=O)NC5=O)c(F)c4)CC2)CC3)c(C)cc1Nc1ncc(Br)c(Nc2ccc3nc(C)c(F)cc3c2P(C)(C)=O)n1 [Example 37, (R)-3-(4-(4-(9-(4-((5-bromo-4-((5-(dimethylphosphoryl)-3-fluoro-2-methylquinolin-6-yl)amino)pyrimidin-2-yl)amino)-5-methoxy-2-methylphenyl)-3,9-diazaspiro[5.5]undecan-3-yl)piperidin-1-yl)-2,6-difluorophenyl)piperidine-2,6-dione] | 3.3 | 90 | 1.4 | 95 |
| CCc1cc(Nc2ncc(Br)c(Nc3ccc4nc(C)c(F)cc4c3P(C)(C)=O)n2)c(OC)cc1N1CCC2(CC1)CCN(C1CN(c3cc(F)c([C@H]4CCC(=O)NC4=O)c(F)c3)C1)CC2 [Example 38, (R)-3-(4-(3-(9-(4-((5-bromo-4-((5-(dimethylphosphoryl)-3-fluoro-2-methylquinolin-6-yl)amino)pyrimidin-2-yl)amino)-2-ethyl-5-methoxyphenyl)-3,9-diazaspiro[5.5]undecan-3-yl)azetidin-1-yl)-2,6-difluorophenyl)piperidine-2,6-dione] | 7.4 | 85 | 8.6 | 89 |
